One experiment relates to TIMP-2. Kind of experiment: Reverse zymography of TIMP secretion, UACC-903 cells. It is filed as cell-based, human. Conditions: cyclopeptide 5 to 20 μM, linear heptapeptide 20 μM. On the procedure:
(§1) FIG. 13: Effect of YSNSG (SEQ ID NO: 3) cyclopeptide on secretion of TIMP. The secretion of 3 tissue inhibitors of metalloproteinases (TIMP) was analyzed by reverse zymography (A) in a medium conditioned by control UACC-903 cells in the absence of peptide (negative control, white bar), on cells treated with the linear heptapeptide CNYYSNS (SEQ ID NO: 5) (20 μM) (positive control, black bar) or treated with cyclopeptide YSNSG (SEQ ID NO: 3) at a concentration from 5 μM to 20 μM (grey bars). The conditioned medium was recovered and analyzed as described in the methods.
(§2) The expression of MMP-2 and MMP-9 in a conditioned medium of UACC-903 cells, treated or not treated with synthetic peptides, was analyzed by zymography in the presence of gelatine as described above (Pasco et al, 2000(a)). The secretion of TIMP-2 was analyzed in a conditioned medium of UACC-903 cells by reverse zymography in the presence of gelatine, as described above (Pascal et al, 2000(a)).

The subject of the next experiment is TIMP-3. The description is as above. As to conditions: conditioned culture medium. It is filed as cell-based, human. On the procedure:
as §1, §2

The next experiment relates to TIMP-1. The experiment is described as above. The format is cell-based, human. Conditions: conditioned culture medium. As to the method:
as §1, §2

In experiment [1] the test system is UACC-903 human melanoma cells. Kind of experiment: In vitro proliferation test (Wst-1 reagent). It is filed as cell-based. Conditions: 48 hours. On the procedure: FIG. 9: In vitro proliferation test for human melanoma cells UACC-903 in the presence of the cyclopeptide YSNSG (SEQ ID NO: 3). The UACC-903 cells were incubated for 48 hours in 24-well plates, with a control medium (negative control, white bar), a linear heptapeptide CNYYSNS (SEQ ID NO: 5) (positive control, black bar) or concentrations of cyclopeptide YSNSG (SEQ ID NO: 3) varying from 5 μM to 20 μm (grey bars).
B16F1 cells, a metastasic sub-line of B16 murine melanoma pulmonary cells (d-Dr M Grégoire, INSERM U419, Nantes, France) were cultivated in RPMI 1640 medium, supplemented with 5% foetal calf serum (FCS) in 25 cm^2 flasks (Nunclon, VWR Int, Strasbourg, France) in a humid atmosphere containing 5% CO2. UACC-903 cells, a melanoma cell line (Dr J Trent, Phoenix, Ariz.) were cultivated in DMEM medium containing 4.5 g/l glucose, supplemented with 5% FCS in 25 cm^2 flasks (Nunclon) in a moist atmosphere containing 5% CO2. HMEC-1 cells (human microvascular entothelial cells; E W Ades, Center for Disease Control and Prevention, Atlanta, Ga.) and HUVEC cells (human umbilical vein endothelial cells) were cultivated in endothelial cell growth medium (ECGM) supplemented with ECGS/H at 0.4% (by weight), 2% (by volume) foetal calf serum, epidermal growth factor (EGF) 10 ng/ml, 1 μg/ml of hydrocortisone, 50 ng/ml of amphotericin B and 50 μg/ml of gentamicin.
Cell proliferation was determined using the reagent Wst-1 following the manufacturer's instructions. This reagent contains a tetrazolium salt which is reduced by mitochondrial oxido-reductases and allows the proliferation and viability of cells to be evaluated. Its reduction gives rise to a soluble formazan derivative which is yellow in colour. Before reaching confluence, the cells were washed twice with a saline solution buffered with phosphate (phosphate buffered saline; PBS) to remove SVF residues and incubated for 48 hours in DMEM medium, in the presence or absence of synthetic peptides at concentrations of 0 to 20 μM. The medium was recovered then centrifuged at 500 g for 10 min at 4° C. to remove cell debris. The protein contents of the medium obtained was determined using Bradford's method using SAB as the reference.

Another experiment relates to MMP-9. Kind of experiment: Zymography in the presence of gelatine, conditioned medium of UACC-903 cells. The format is cell-based, human. Conditions: cyclopeptide 5 to 20 μM, linear heptapeptide 20 μM. On the procedure:
(§3) FIG. 11: Effect of YSNSG (SEQ ID NO: 3) cyclopeptide on secretion of MMP-2 and MMP-9. The secretion of MMP-2 and MMP-9 was analyzed by zymography in the presence of gelatine (A), on a medium conditioned by UACC-903 cells in the absence of peptide (negative control, white bar), on cells treated with linear heptapeptide CNYYSNS (SEQ ID NO: 5) (20 μM) (positive control, black bar) or cells treated with concentrations of 5 μM to 20 μM of cyclopeptide (grey bars) YSNSG (SEQ ID NO: 3). The conditioned medium was collected and analyzed as described in the method. Quantification was carried out using Bio 1D software. B: quantification of proMMP2; C: quantification of proMMP-9 (A.U.: arbitrary unit);
as §2

The test system of another experiment is MMP-2. The experiment is described as above. The format is cell-based, human. As to conditions: cyclopeptide 5 to 20 μM, linear heptapeptide 20 μM. On the procedure: as §3, §2
The test system of experiment [2] is B16F1 murine melanoma cells. Put plainly: Measurement of in vivo tumour growth, pre-incubated B16F1 cells injected s.c. Also noted: species or system C57BL6 mice. As to conditions: day 20; for in vivo tumour growth: B16F1 cells pre-incubated 15 minutes with 20 μM peptide, s.c. in C57BL6 mice. On the procedure:
FIG. 16: In vivo tumour growth in the presence of YSNSG (SEQ ID NO: 3) cyclopeptide. B16F1 cells were incubated for 15 minutes with a control medium (negative control, white diamonds), with the linear heptapeptide CNYYSNS (SEQ ID NO: 5) (20 μM) (positive control, black diamonds) or with the cyclopeptide YSNSG (SEQ ID NO: 3) at a concentration of 20 μM (grey diamonds), then injected subcutaneously into syngenic C57BL6 mice (2.5×10^5 cells per mouse). The tumour volume was measured on the 20th day;
Female C57BL6 mice (mean body weight 18 to 20 g) were purchased from Harlan France (Gannat, France). The animals were placed in individual cages at a constant temperature and humidity; food and water were supplied ad libitum. All of the mice underwent a 1 week acclimatization period before commencing the experiments. The in vivo experiments were carried out in accordance with the recommendations of the Centre National de la recherché Scientifique (CNRS, National Centre for Scientific Research).
A suspension of B16F1 cells (2.5×10^5 cells in RPMI 1640 medium) which may or may not have been pre-treated with the cyclopeptide YSNSG (SEQ ID NO: 3) (20 μM) was injected subcutaneously into the left flank of syngenic mice from a different series. The mice were sacrificed on day 20 and the tumour size was measured. The volume of the tumours was determined by the relationship V=½A×B^2 in which A and B respectively represent the largest and the smallest dimension of the tumour (Wald et al).

Where a SMILES comes first, the peptide text is derived from it.

Regarding “CNYYSNS (Synthetic linear heptapeptide) [linear peptide NC1 [α3(IV) 185-191], the 7 N-terminal amino acids of the 185-203 domain; positive control, reference compound]”, the “secretion of TIMP-2” value in the experiment with TIMP-2 was “dose-dependent increase”. Besides, the “Secretion of TIMP-3” value with TIMP-3 is listed as “not modified”. Besides, the “Secretion of TIMP-1” value with TIMP-1 is “not modified”. Further, the “In vitro proliferation of UACC-903 human melanoma cells, change vs control” value in experiment [1] (linear heptapeptide positive control, concentration not given) is listed as −45%. In the experiment with MMP-9, the “secretion of MMP-9” value was “No significant change”. Besides, in the experiment on MMP-2, the “secretion of MMP-2” value is “No significant change”. For the same molecule, the “in vivo tumour growth” value in experiment [2] is recorded as “inhibited tumour growth”.

With `NC(=O)CC1NC(=O)C(CO)NC(=O)C(Cc2ccc(O)cc2)NC(=O)CNC(=O)C(CO)NC1=O` (centres unmarked) [cyclopeptide YSNSG, cyclopeptide YSNSG (SEQ ID NO: 3)] (cyclo(GYSNS); configuration not given here), in the experiment with TIMP-2, the “secretion of TIMP-2” value is on record as “dose-dependent increase”. For the same molecule, the “Secretion of TIMP-3” value with TIMP-3 was “not modified”. For the same molecule, the “Secretion of TIMP-1” value in the experiment with TIMP-1 was “not modified”. In addition, the figures for the “inhibited the proliferation of UACC-903 melanoma cells” value in experiment [1] (5 μM), in experiment [1] (10 μM) and in experiment [1] (20 μM) were 27%, 29% and 40%, respectively. In addition, in the experiment on MMP-9, the “secretion of MMP-9” value is “No significant change”. In the experiment with MMP-2, the “secretion of MMP-2” value is listed as “No significant change”. The “in vivo tumour growth” value in experiment [2] is “inhibited tumour growth”. The “reduction in tumour volume” value in experiment [2] (B16F1 cells pre-treated with 20 μM, no re-injection of peptide, C57BL6 mice) is 46%.

The record behind these values is US20090305955A1, “Cyclopeptide with Anti-Cancer Activity Derived from Collagen Type IV” (priority 2006, published 2009).
